Reference: patent US5744452A, “γ-L-glutamyl containing immunomodulator compounds and methods therewith” (Wei; Edward T., priority 1995, dated 1998)

How the values were obtained:
human subjects = test: Side-effects in all 62 human subjects; assay type: in vivo; details: 0.1 mg i.m. per day for 5 days, 62 patients
Experimental: Preliminary studies were conducted to characterize the immunomodulatory properties of Bestim in human subjects. The protocol for the human subjects studies were reviewed and approved by a Hospital Committee (Moscow Hospital N-24) and informed consent was obtained from all subjects. All 62 patients received by intramuscular injection 0.1 mg of Bestim dissolved in 1.5 to 2.0 ml of sterile saline, one injection per day for 5 days. Patients participating in the clinical trials were from 2 groups: […]

patient with sepsis = test: Case History 2: immunodeficiency caused by sepsis (Patient B); assay type: in vivo, human
Experimental: Patient B was in the clinic with a diagnosis of sepsis. Immunodeficiency was confirmed by laboratory tests. Bestim was administered in the standard 5 daily intramuscular doses of 0.1 mg.

[1] = system: patients with disseminated cancer; test: Study in patients with disseminated cancer after anticancer therapy; assay type: in vivo, human; details: for Adhesion (%) / B-cells / B-cells (%) / Blastransformation, LPS / Blastransformation, PHA / Blastransformation, spontaneous / CD3 / CD3 (%) / CD4 / CD4 (%) / CD4/CD8 / CD8 / CD8 (%) / Cationic proteins / Chemiluminescence, luminol (induced) / Chemiluminescence, luminol (spontaneous) / IgA / IgG / IgM / Myeloperoxidase activity / NBT reduction test / NK activity (%) / NK-cells / NK-cells (%) / Stimulation index, LPS / Stimulation index, PHA: cancer patients
Experimental: Preliminary studies were conducted to characterize the immunomodulatory properties of Bestim in human subjects. The protocol for the human subjects studies were reviewed and approved by a Hospital Committee (Moscow Hospital N-24) and informed consent was obtained from all subjects. All 62 patients received by intramuscular injection 0.1 mg of Bestim dissolved in 1.5 to 2.0 ml of sterile saline, one injection per day for 5 days. Patients participating in the clinical trials were from 2 groups:
The first group consisted of 34 patients with disseminated cancer (29 with colon cancer, 2 with primary brain gliomas, 2 with stage III gastric cancer, 1 with stage IIIb breast cancer). These patients received Bestim therapy after standard anticancer therapy which included surgical treatment and chemotherapy with 5-fluorouracil. It should be noted here that the goal of Bestim therapy in these patients was not to treat the tumor but to correct the immunodeficiency that accompanied this disease and which occurs as a consequence of anticancer therapy. Placebo (saline injections) were administered to 14 subjects.
Laboratory measurements (data in Table 8 to 10) were performed one day before and compared to values obtained three days after injection of Bestim.

dogs [2] = test: Subacute toxicity, repeated intramuscular injection, dogs; assay type: in vivo
Experimental: (§1) To illustrate this point and in preparation for clinical studies, acute and sub-acute toxicity studies were conducted in animals with Bestim according to conditions of good-laboratory practices. Bestim, prepared as a sterile lyophitized powder in ampoules, was dissolved in sterile 0.9% NaCl solution and injected intramuscularly in all experiments.
Subacute Toxicity Studies: In a second set of experiments, Bestim was administered for longer durations, accordingly:
dogs: 1 mg/kg, 10 mg/kg and 100 mg/kg, administered intramuscularly daily for 1 month and for 3 months.

dogs [3] = test: Acute toxicity, single intramuscular dose, dogs; assay type: in vivo; details: single 500.0 mg/kg intramuscular, 14 days
Experimental: as §1
Acute toxicity: Rodents (mice and rats) and dogs were randomized into groups of equal numbers of males and females. Animals were inspected daily for 14 days after a single dose of Bestim (intramuscular):
Body weight, overall appearance and behavior were evaluated each day and, at the end of two weeks, macroscopic and histopathological examinations of the internal organs (heart, lungs, pleural and peritoneal cavities, muscles, stomach, small and large intestine, liver, spleen, pancreas, kidneys, bladder, thyroid, brain, skin and testes/ovaries) of all animals were conducted.

N[C@@H](CCC(=O)N[C@@H](Cc1c[nH]c2ccccc12)C(=O)O)C(=O)O [Bestim, γ-L-glutamyl-L-tryptophan]
side-effects (human subjects): No detectable side-effects
Lymphocytes (patient with sepsis; After Bestim Therapy): 1370 per mm^3
T-Lymphocytes (CD3) (patient with sepsis; After Bestim Therapy): 75%
T-helper lymphocytes (CD4) (patient with sepsis; After Bestim Therapy): 50%
White blood cells (patient with sepsis; After Bestim Therapy (5 daily i.m. 0.1 mg)): 9.8 × 10^3 per mm^3
Lymphocytes (patient with sepsis; Before Therapy): 560 per mm^3
T-Lymphocytes (CD3) (patient with sepsis; Before Therapy): 23%
T-helper lymphocytes (CD4) (patient with sepsis; Before Therapy): 11%
White blood cells (patient with sepsis; Before Therapy): 10.2 × 10^3 per mm^3
patients who subjectively felt better and were improved in the physician's opinion ([1]; 30 out of 34 cancer patients, 0.1 mg i.m. per day for 5 days): 88%
patients with negative changes in immunological parameters ([1]; cancer patients N = 34): 9%
patients with no significant change in immunological parameters ([1]; cancer patients N = 34): 18%
patients with positive changes in immunological parameters ([1]; cancer patients N = 34): 73%
Adhesion (%) ([1]; Bestim After): 47.6 ± 5.7%
B-cells ([1]; Bestim After): 240 ± 90 10^6 cells/L
B-cells (%) ([1]; Bestim After): 7.1 ± 2.2%
Blastransformation, LPS ([1]; Bestim After): 2738 ± 305
Blastransformation, PHA ([1]; Bestim After): 21661 ± 5674
Blastransformation, spontaneous ([1]; Bestim After): 434 ± 73
CD3 ([1]; Bestim After): 1940 ± 234 10^6 cells/L
CD3 (%) ([1]; Bestim After): 70 ± 4%
CD4 ([1]; Bestim After): 923 ± 114 10^6 cells/L
CD4 (%) ([1]; Bestim After): 35 ± 2%
CD4/CD8 ([1]; Bestim After): 1.16 ± 0.09
CD8 ([1]; Bestim After): 757 ± 75 10^6 cells/L
CD8 (%) ([1]; Bestim After): 29 ± 2%
Cationic proteins ([1]; Bestim After): 52.4 ± 3.3 Units
Chemiluminescence, luminol (induced) ([1]; Bestim After): 5294 ± 789
Chemiluminescence, luminol (spontaneous) ([1]; Bestim After): 827 ± 299
IgA ([1]; Bestim After): 4.1 ± 0.7 g/L
IgG ([1]; Bestim After): 14.4 ± 1.0 g/L
IgM ([1]; Bestim After): 2.2 ± 0.4 g/L
Myeloperoxidase activity ([1]; Bestim After): 479 ± 97 Units
NBT reduction test ([1]; Bestim After): 160 ± 21 Units
NK activity (%) ([1]; Bestim After): 28 ± 1.5%
NK-cells ([1]; Bestim After): 267 ± 32 10^6 cells/L
NK-cells (%) ([1]; Bestim After): 12.0 ± 1.7%
Stimulation index, LPS ([1]; Bestim After): 7.4 ± 0.7
Stimulation index, PHA ([1]; Bestim After): 48.9 ± 10.3
Adhesion (%) ([1]; Bestim Before): 49.6 ± 5.9%
B-cells ([1]; Bestim Before): 152 ± 58 10^6 cells/L
B-cells (%) ([1]; Bestim Before): 5.0 ± 1.3%
Blastransformation, LPS ([1]; Bestim Before): 2328 ± 438
Blastransformation, PHA ([1]; Bestim Before): 5998 ± 1745
Blastransformation, spontaneous ([1]; Bestim Before): 373 ± 63
CD3 ([1]; Bestim Before): 1430 ± 183 10^6 cells/L
CD3 (%) ([1]; Bestim Before): 65 ± 4%
CD4 ([1]; Bestim Before): 582 ± 54 10^6 cells/L
CD4 (%) ([1]; Bestim Before): 28 ± 2%
CD4/CD8 ([1]; Bestim Before): 1.04 ± 0.08
CD8 ([1]; Bestim Before): 572 ± 53 10^6 cells/L
CD8 (%) ([1]; Bestim Before): 25 ± 2%
Cationic proteins ([1]; Bestim Before): 49.9 ± 5.9 Units
Chemiluminescence, luminol (induced) ([1]; Bestim Before): 6991 ± 2101
Chemiluminescence, luminol (spontaneous) ([1]; Bestim Before): 475 ± 141
IgA ([1]; Bestim Before): 4.5 ± 0.8 g/L
IgG ([1]; Bestim Before): 14.2 ± 1.0 g/L
IgM ([1]; Bestim Before): 1.9 ± 0.4 g/L
Myeloperoxidase activity ([1]; Bestim Before): 467 ± 87 Units
NBT reduction test ([1]; Bestim Before): 157 ± 19 Units
NK activity (%) ([1]; Bestim Before): 29 ± 1.3%
NK-cells ([1]; Bestim Before): 256 ± 44 10^6 cells/L
NK-cells (%) ([1]; Bestim Before): 13.4 ± 2.3%
Stimulation index, LPS ([1]; Bestim Before): 7.6 ± 0.6
Stimulation index, PHA ([1]; Bestim Before): 15.9 ± 4.5
macroscopic and histological examination of organs (dogs [2]; dogs, 1, 10 and 100 mg/kg i.m. daily for 1 and 3 months): no significant changes
local inflammatory reactions at the site of injection (dogs [2]; dogs, repeated i.m. injection): no local inflammatory reactions at the site of injection
deaths (dogs [3]): No deaths were observed
general appearance, behavior, body weight, hematological, biochemical and physiological indices, macroscopic and histopathological examination of internal organs (dogs [3]): all within normal limits
